From patent US8450494B2, “Disubstituted benzamide derivatives as glucokinase (GK) activators” (Cadila Healthcare Limited, priority 2010, dated 2013) come the findings set out here.

Each structure is given as a SMILES string.

As usually defined, the EC50 is the concentration needed to bring the measured effect to its halfway point. A low value points to an effect from little substance.

The target in the experiment is T1, glucokinase (GK) enzyme (Homo sapiens, UniProt P35557).
T1 sequence (P35557 1-465): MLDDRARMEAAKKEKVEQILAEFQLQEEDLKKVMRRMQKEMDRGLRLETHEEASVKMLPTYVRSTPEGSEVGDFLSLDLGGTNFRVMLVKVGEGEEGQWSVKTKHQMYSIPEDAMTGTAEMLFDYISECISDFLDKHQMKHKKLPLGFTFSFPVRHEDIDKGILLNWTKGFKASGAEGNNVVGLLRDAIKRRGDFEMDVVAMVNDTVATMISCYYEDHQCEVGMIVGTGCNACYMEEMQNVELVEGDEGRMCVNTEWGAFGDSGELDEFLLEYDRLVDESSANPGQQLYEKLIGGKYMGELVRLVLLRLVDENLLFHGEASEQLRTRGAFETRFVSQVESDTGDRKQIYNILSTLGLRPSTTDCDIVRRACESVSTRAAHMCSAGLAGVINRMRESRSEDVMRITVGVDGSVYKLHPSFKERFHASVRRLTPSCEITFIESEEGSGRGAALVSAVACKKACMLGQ
The experiment can be described thus: In-vitro glucokinase (GK) enzyme activation assay (coupled with glucose-6-phosphate dehydrogenase, absorbance at 340). Format: biochemical. Conditions: glucose 2.5 mM, ATP 1 mM; for activity at 0.1 µM: compound 0.1 uM; for activity at 0.1 µM / activity at 1 µM / activity at 5 µM / activity at 10 µM: read-out: % of GK activity wrt DMSO; for activity at 1 µM: compound 1 uM; for activity at 5 µM: compound 5 uM; for activity at 10 µM: compound 10 uM. As for the experimental part:
The compound of the invention was incubated with glucokinase (GK) enzyme (0.2 units) for 10 minutes in assay buffer at 26° C. After incubation, addition of glucose-6-phosphate dehydrogenase (2.5 units), ATP (1 mM) and glucose (2.5 mM). Absorbance is measured at 340 nm for 15 minutes with 10 second interval using UV transparent plate in kinetic mode on Spectramax-190 at 30° C.

On to `CCOC(=O)Cc1csc(NC(=O)c2cc(Oc3ccc(-c4nnc(C)o4)cc3)cc(OC(C)COC)c2)n1` (stereo not shown) [Example 2.7, Ethyl 2-(2-(3-((1-methoxypropan-2-yl)oxy)-5-(4-(5-methyl-1,3,4-oxadiazol-2-yl)phenoxy)benzamido)thiazol-4-yl)acetate], for which the activity at 0.1 µM is 288%, the activity at 1 µM amounted to 349%, the activity at 5 µM was found to be 353% and the activity at 10 µM was 345%.
Turning to `Cc1nnc(-c2ccc(Oc3cc(OCC4CC4)cc(C(=O)Nc4nccs4)c3)cc2)o1` [Example 1.5, 3-(Cyclopropylmethoxy)-5-(4-(5-methyl-1,3,4-oxadiazol-2-yl)phenoxy)-N-(thiazol-2-yl)benzamide], the activity at 0.1 µM was 234%, the activity at 1 µM came to 292%, the activity at 5 µM is 305% and the activity at 10 µM came out at 293%. This compound showed an EC50 (GK activation) of 88 nM.
With `COC[C@H](C)Oc1cc(Oc2ccc(-c3nnc(C)o3)cc2)cc(C(=O)Nc2nc(C)cs2)c1` [Example 2.20, (S)-3-((1-Methoxypropan-2-yl)oxy)-5-(4-(5-methyl-1,3,4-oxadiazol-2-yl)phenoxy)-N-(4-methylthiazol-2-yl)benzamide], the activity at 0.1 µM turned out to be 251%, the activity at 1 µM stood at 405%, the activity at 5 µM was 436% and the activity at 10 µM was determined as 408%.
On to `CCOC(=O)c1cnc(NC(=O)c2cc(Oc3ccc(-c4nnc(C)o4)cc3)cc(OC(C)COC)c2)s1` (stereo not shown) [Example 2.16, Ethyl 2-{3-[(1-methoxypropan-2-yl)oxy]-5-[4-(5-methyl-1,3,4-oxadiazol-2-yl)phenoxy]benzamido}thiazole-5-carboxylate], for which the activity at 0.1 µM came to 101%, the activity at 1 µM is 144%, the activity at 5 µM was found to be 201% and the activity at 10 µM is 205%.
On to `COCC(C)Oc1cc(Oc2cccc(-c3nnc(C)o3)c2)cc(C(=O)Nc2nccs2)c1` (stereo not shown) [Example 2.21, 3-((1-Methoxypropan-2-yl)oxy)-5-(3-(5-methyl-1,3,4-oxadiazol-2-yl)phenoxy)-N-(thiazole-2-yl)benzamide], for which the activity at 0.1 µM turned out to be 179%, the activity at 1 µM worked out at 287%, the activity at 5 µM amounted to 318% and the activity at 10 µM was 293%.
Turning to `C=CCCOc1cc(Oc2ccc(-c3nnc(C)o3)cc2)cc(C(=O)Nc2ncc(C)s2)c1` [Example 2.13, 3-(But-3-en-1-yloxy)-5-(4-(5-methyl-1,3,4-oxadiazol-2-yl)phenoxy)-N-(5-methylthiazol-2-yl)benzamide], the activity at 0.1 µM came to 112%, the activity at 1 µM came out at 180%, the activity at 5 µM turned out to be 233% and the activity at 10 µM turned out to be 215%.
The corresponding values for `COCC(C)Oc1cc(Oc2ccc(-c3nnc(C)o3)cc2)cc(C(=O)Nc2nc(C)cs2)c1` (stereo not shown) [Example 2.10, 3-((1-Methoxypropan-2-yl)oxy)-5-(4-(5-methyl-1,3,4-oxadiazol-2-yl)phenoxy)-N-(4-methylthiazol-2-yl)benzamide] are 310%, 370%, 368% and 356%.
`COC[C@H](C)Oc1cc(Oc2ccc(-c3nnc(C)o3)cc2)cc(C(=O)Nc2ncc(C#N)s2)c1` [Example 2.42, (S)—N-(5-Cyanothiazol-2-yl)-3-((1-methoxypropan-2-yl)oxy)-5-(4-(5-methyl-1,3,4-oxadiazol-2-yl)phenoxy)benzamide]: the activity at 0.1 µM came out at 126%, the activity at 1 µM turned out to be 223%, the activity at 5 µM is 306% and the activity at 10 µM turned out to be 333%.
Regarding `COC[C@@H](C)Oc1cc(Oc2ccc(-c3nnc(C)o3)cc2)cc(C(=O)Nc2nccs2)c1` [Example 2.15, (R)-3-(1-Methoxypropan-2-yloxy)-5-(4-(5-methyl-1,3,4-oxadiazol-2-yl)phenoxy)-N-(thiazol-2-yl)benzamide], the activity at 0.1 µM worked out at 105%, the activity at 1 µM stood at 164%, the activity at 5 µM amounted to 239% and the activity at 10 µM amounted to 266%.
